Laboratory results from patent publication US4590178A (Ajinomoto Company, Incorporated, priority 1982, dated 1986).

Tested on: spontaneously hypertensive rats
Assay: Antihypertensive activity: systolic blood pressure measured indirectly on conscious SHR after peroral dosing
Format: in vivo, rat
Conditions: for Systolic Blood Pressure, Pretreatment: SHR (male, 13 months, 2 per sample), before 35 mg/kg peroral single dose; for Systolic Blood Pressure, 4 hrs after administration / Δ Blood Pressure: SHR; for Systolic Blood Pressure, 4 hrs after administration: 4 hours after 35 mg/kg peroral single dose; for Δ Blood Pressure: 4 hours after 35 mg/kg peroral single dose versus pretreatment
Procedure: The antihypertensive activity of part of the amino acid derivatives prepared above, was determined.
As subject animals 2 SHR were used which had been trained enough and been confirmed to be hypertensive spontaneously hypertensive rats (male, 13 months of age, the body weight of 400 to 440 g) per sample.
As an instrument for measuring the blood pressure a Programmed Electro-Sphygmomanometer PE-300 (Narco Co., U.S.A.) was used, and the blood pressure was indirectly measured on conscious rats.
An aqueous solution or suspension of a sample (35 mg/kg) was once force-fed into the stomach by means of a peroral probe.
An antihypertensive activity of part of the amino acid derivatives prepared above was determined.
As subject animals there were used 2 SHR which had been trained enough and been confirmed to be hypertensive spontaneously hypertensive rats (male, 13 months of age, the body weight of 400~440 g) per sample.
As an instrument for measuring the blood pressure there was used Programmed Electro-Sphygmomanometer PE-300 (Narco Co., U.S.A.), and the blood pressure was indirectly measured on conscious rats.
An antihypertensive activity of the product prepared above was determined.

Compound	Systolic Blood Pressure, Pretreatment [mm Hg]	Systolic Blood Pressure, 4 hrs after administration [mm Hg]	Δ Blood Pressure [mm Hg]
C[C@H](NP(=O)(CCc1ccccc1)OCc1ccccc1)C(=O)N1CCC[C@H]1C(=O)N1CCC[C@H]1C(=O)O.NC(N)=NCCC[C@H](N)C(=O)O (stereo partly drawn) [Example 27, N-(O-benzyl-P-phenethylphosphonyl)-L-alanyl-L-prolyl-L-proline L-arginine salt]	180	152	-28
C[C@H](NP(=O)([O-])CCc1ccccc1)C(=O)N1CCC[C@H]1C(=O)N1CCC[C@H]1C(=O)[O-].[Na+].[Na+] [Example 28, N-phenethylphosphonyl-L-alanyl-L-prolyl-L-proline 2 sodium salt]	183	151	-32
C[C@H](NP(=O)(O)CCc1ccccc1)C(=O)N(CC(=O)N1CCC[C@H]1C(=O)[O-])C1Cc2ccccc2C1.C[C@H](NP(=O)(O)CCc1ccccc1)C(=O)N(CC(=O)N1CCC[C@H]1C(=O)[O-])C1Cc2ccccc2C1.[Na+].[Na+] [Example 29, N-Phenethylphosphonyl-L-alanyl-N-(2-indanyl)glycyl-L-proline 2 sodium salt]	203	172	-31
C[C@H](NP(=O)(CCc1ccccc1)OCc1ccccc1)C(=O)N(CC(=O)N1CCC[C@H]1C(=O)O)C1Cc2ccccc2C1.NC(N)=NCCC[C@H](N)C(=O)O (stereo partly drawn) [Example 30, N-(O-Benzyl-P-phenethylphosphonyl)-L-alanyl-N-(2-indanyl)glycyl-L-proline L-arginine salt]	184	154	-30
C[C@H](NP(=O)(OCc1ccccc1)OCc1ccccc1)C(=O)N1CCC[C@H]1C(=O)N1CCC[C@H]1C(=O)[O-].[K+] [Example 32, Dibenzylphosporyl-L-alanyl-L-propyl-L-Proline potassium salt]	185	160	-25
CSCC[C@H](NP(=O)(OCc1ccccc1)OCc1ccccc1)C(=O)N1CCC[C@H]1C(=O)N1CCC[C@H]1C(=O)O.N=C(N)NCCC[C@H](N)C(=O)O [Example 33, Dibenzylphosphoryl-L-methionyl-L-propyl-L-proline L-arginine salt]	186	168	-18
CSCC[C@H](NP(=O)(CCc1ccccc1)OCc1ccccc1)C(=O)N1CCC[C@H]1C(=O)N1CCC[C@H]1C(=O)O.NC(N)=NCCC[C@H](N)C(=O)O (stereo partly drawn) [Example 35, N-(O-Benzyl-P-phenethylphosphonyl)-L-methionyl-L-prolyl-L-proline L-arginine salt]	191	158	-33
NCCCC[C@H](NP(=O)(O)CCc1ccccc1)C(=O)N1CCC[C@H]1C(=O)N1CCC[C@H]1C(=O)[O-].NCCCC[C@H](NP(=O)(O)CCc1ccccc1)C(=O)N1CCC[C@H]1C(=O)N1CCC[C@H]1C(=O)[O-].[Na+].[Na+] [Example 36, N^α -Phenethylphosphonyl-L-lysyl-L-prolyl-L-proline 2 sodium salt]	200	177	-23
CCOP(=O)(CCc1ccccc1)N[C@@H](CCCCN)C(=O)N1CCC[C@H]1C(=O)N1CCC[C@H]1C(=O)O.NC(N)=NCCC[C@H](N)C(=O)O (stereo partly drawn) [Example 37, N^α -(O-Ethyl-P-phenethylphosphonyl)-L-lysyl-L-prolyl-L-proline L-arginine salt]	201	172	-29
CCCCCP(=O)(O)N[C@@H](C)C(=O)N1CCC[C@H]1C(=O)N1CCC[C@H]1C(=O)[O-].CCCCCP(=O)(O)N[C@@H](C)C(=O)N1CCC[C@H]1C(=O)N1CCC[C@H]1C(=O)[O-].[Na+].[Na+] [Example 38, N-n-Amylphosphonyl-L-alanyl-L-prolyl-L-proline 2 sodium salt]	187	167	-20
CCOP(=O)(CCc1ccccc1)N[C@@H](CCSC)C(=O)N1CCC[C@H]1C(=O)N1CCC[C@H]1C(=O)O.NC(N)=NCCC[C@H](N)C(=O)O (stereo partly drawn) [Example 40, N--(O--ethyl-P--phenethylphosphonyl)-L-methionyl-L-prolyl-L-proline L-arginine salt]	196	166	-30
COP(=O)(CCc1ccccc1)N[C@@H](CCSC)C(=O)N1CCC[C@H]1C(=O)N1CCC[C@H]1C(=O)O.NC(N)=NCCC[C@H](N)C(=O)O (stereo partly drawn) [Example 41, N--(O--methyl-P--phenethylphosphonyl)-L-methionyl-L-prolyl-L-proline L-arginine salt]	203	172	-31
C[C@H](NP(=O)(CCc1ccccc1)OCc1ccccc1)C(=O)N1CCC[C@H]1C(=O)N1CCC[C@H]1C(=O)[O-].[Na+] (stereo partly drawn) [Example 42, N--(O--benzyl-P--phenethylphosphonyl)-L-alanyl-L-prolyl-L-proline sodium salt]	194	180	-14
CCOP(=O)(CCc1ccccc1)N[C@@H](C)C(=O)N1CCC[C@H]1C(=O)N1CCC[C@H]1C(=O)[O-].[Na+] (stereo partly drawn) [Example 43, N--(O--ethyl-P--phenethylphosphonyl)-L-alanyl-L-prolyl-L-proline sodium salt]	195	171	-24
CSCC[C@H](NP(=O)(CCc1ccccc1)OCc1ccccc1)C(=O)N1CCC[C@H]1C(=O)N1CCC[C@H]1C(=O)[O-].CSCC[C@H](NP(=O)(CCc1ccccc1)OCc1ccccc1)C(=O)N1CCC[C@H]1C(=O)N1CCC[C@H]1C(=O)[O-].[Ca+2] (stereo partly drawn) [Example 55, N-(O-Benzyl-P-phenethylphosphonyl)-L-methionyl-L-prolyl-L-proline calcium salt]	210	180	-30
C[C@H](NP(=O)(O)OCc1ccccc1)C(=O)N1CCC[C@H]1C(=O)N1CCC[C@H]1C(=O)O.C[C@H](NP(=O)(O)OCc1ccccc1)C(=O)N1CCC[C@H]1C(=O)N1CCC[C@H]1C(=O)O.N.N [Example 57, Monobenzylphosphoryl-L-alanyl-L-propyl-L-proline diammonium salt]	195	167	-28
COC(=O)[C@@H]1CCCN1C(=O)[C@@H]1CCCN1C(=O)[C@H](C)NP(=O)([O-])CCc1ccccc1.[Na+] [Example 80, N-Phenethylphosphonyl-L-alanyl-L-prolyl-L-proline methylester sodium salt]	193	183	-10
Dibenzylphoshoryl-L-alanyl-L-prolyl-L-alanine L-arginine salt [Example 12]	193	182	-11
Dibenzylphosphoryl-L-alanyl-L-prolyl-D-alanine L-arginine salt [Example 14]	183	161	-22
Dibenzylphosphoryl-L-alanyl-L-prolyl-D-proline L-arginine salt [Example 15]	182	167	-15
Dibenzylphosphoryl-L-alanyl-L-prolyl-L-aspartic acid L-arginine salt [Example 3]	208	197	-11
Dibenzylphosphoryl-L-alanyl-L-prolyl-L-proline L-arginine salt [Example 1]	205	170	-35
Dibenzylphosphoryl-L-alanyl-L-prolyl-L-proline L-lysine salt [Example 24]	192	161	-31
Dibenzylphosphoryl-L-alanyl-L-prolyl-L-proline calcium salt [Example 53]	220	188	-32
Dibenzylphosphoryl-L-alanyl-L-prolyl-L-proline dicyclohexylamine salt [Example 74]	195	165	-30
